Measurements as given in ChEMBL document CHEMBL4002643, “Tubulin-binding dibenz[c,e]oxepines: Part 2. Structural variation and biological evaluation as tumour vasculature disrupting agents” (Bioorg Med Chem, 2017).

Key:
[1] = Inhibition of porcine tubulin assembly measured for 30 mins by UV/visible spectrophotometric method; set-up: species or system Sus scrofa
DLD-1 [2] = assay: Induction of vascular shutdown in human DLD1 cells xenografted in Balb/C immunodeficient nude mouse at 400 mg/kg, iv by […] dye-based microscopic method; type: functional, organism-based; settings: TDE = time-dependent effect
DLD-1 [3] = assay: Vascular disrupting activity in human DLD1 cells xenografted in Balb/C immunodeficient nude mouse assessed as induction of necrosis by measuring necrotic area at 400 mg/kg, iv at 24 hrs post dose by haematoxylin and eosin staining-based assay (reference value: 19 +/- 9.6%); type: functional
DLD-1 [4] = assay: Vascular disrupting activity in human DLD1 cells xenografted in Balb/C immunodeficient nude mouse assessed as induction of necrosis by measuring necrotic area at 400 mg/kg, iv at 1 hr post dose by haematoxylin and eosin staining-based assay (reference value: 19 +/- 9.6%); type: functional
DLD-1 [5] = assay: Vascular disrupting activity in human DLD1 cells xenografted in Balb/C immunodeficient nude mouse assessed as induction of necrosis by measuring necrotic area at 400 mg/kg, iv at 4 hrs post dose by haematoxylin and eosin staining-based assay (reference value: 19 +/- 9.6%); type: functional
DLD-1 [6] = assay: Induction of vascular shutdown in human DLD1 cells xenografted in Balb/C immunodeficient nude mouse assessed as vascular element counts at 400 mg/kg, iv at 1 hr post dose by […] dye-based microscopic method (reference value: 3.73 +/- 3.1%); type: functional
DLD-1 [7] = assay: Induction of vascular shutdown in human DLD1 cells xenografted in Balb/C immunodeficient nude mouse assessed as vascular element counts at 400 mg/kg, iv at 24 hrs post dose by […] dye-based microscopic method (reference value: 3.73 +/- 3.1%); type: functional
DLD-1 [8] = assay: Induction of vascular shutdown in human DLD1 cells xenografted in Balb/C immunodeficient nude mouse assessed as vascular element counts at 400 mg/kg, iv at 4 hrs post dose by […] dye-based microscopic method (reference value: 3.73 +/- 3.1%); type: functional
K562 = assay: Cytotoxicity against human K562 cells assessed as growth inhibition after 5 days by MTT assay; type: functional, cell-based; settings: K562, 120 h

## COc1cc2c(c(OC)c1OC)-c1ccc(OC)c(=O)cc1[C@@H](NC(C)=O)CC2 [COLCHICINE]
[1]
  IC50: 2 µM

## COc1cc2c(c(OC)c1OC)-c1ccc(OP(=O)([O-])[O-])cc1[C@@H](NC(C)=O)CC2.[Na+].[Na+]
DLD-1 [2]
  Activity: Tde
DLD-1 [3]
  Activity: 91%
DLD-1 [4]
  Activity: 23.2%
DLD-1 [5]
  Activity: 22.3%
DLD-1 [6]
  Activity: 0.03%
DLD-1 [7]
  Activity: 0.42%
DLD-1 [8]
  Activity: 0.12%

## COc1cc2c(c(OC)c1OC)-c1ccc([N+](=O)[O-])cc1COC2
[1]
  IC50: > 10 µM
K562
  IC50: 16 µM

## COc1ccc(/C=C\c2cc(OC)c(OC)c(OC)c2)cc1O [COMBRETASTATIN A4]
K562
  IC50: 1 µM
